Test results from patent publication US6924292B2, “Furoisoquinoline derivatives, process for producing the same and use thereof” (Takeda Chemical Industries, Ltd., priority 2000, dated 2005).

Assays:
[1] = target: T1, recombinant human brain-derived phosphodiesterase 4D3 (Homo sapiens, UniProt Q08499); test: Assay of phosphodiesterase IV-inhibiting effect (SPA, [3H]cAMP); assay type: biochemical; settings: recombinant human brain-derived phosphodiesterase 4D3, SPA with [3H]cAMP, 30 minutes at 30° C.; read-out: PDE IV-inhibiting effect (IC50)
T1 construct: GST (N); made in house; host or cells: Escherichia coli BL21 (BL21/pPDE4D3, FERM BP-7075)
T1 sequence (Q08499 1-673 isoform Q08499-2): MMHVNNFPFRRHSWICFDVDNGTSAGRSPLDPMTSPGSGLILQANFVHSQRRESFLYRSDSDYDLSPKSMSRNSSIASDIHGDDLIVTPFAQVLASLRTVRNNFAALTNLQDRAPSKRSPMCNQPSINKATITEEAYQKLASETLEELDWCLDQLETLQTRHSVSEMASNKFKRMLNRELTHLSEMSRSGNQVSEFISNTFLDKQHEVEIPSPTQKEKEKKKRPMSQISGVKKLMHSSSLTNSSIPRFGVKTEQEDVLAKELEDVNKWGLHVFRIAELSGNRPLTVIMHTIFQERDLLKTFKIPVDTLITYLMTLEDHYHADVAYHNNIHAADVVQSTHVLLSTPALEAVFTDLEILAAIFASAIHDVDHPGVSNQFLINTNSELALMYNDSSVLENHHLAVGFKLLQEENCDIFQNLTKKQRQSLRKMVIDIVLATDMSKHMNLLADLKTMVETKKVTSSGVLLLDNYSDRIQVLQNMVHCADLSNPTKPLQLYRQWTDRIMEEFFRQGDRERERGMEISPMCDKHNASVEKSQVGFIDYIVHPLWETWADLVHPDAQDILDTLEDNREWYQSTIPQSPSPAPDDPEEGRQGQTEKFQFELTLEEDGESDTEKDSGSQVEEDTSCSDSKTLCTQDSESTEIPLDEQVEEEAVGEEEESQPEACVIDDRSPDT
Description: Experiment Example 1 Assay of Phosphodiesterase IV-inhibiting Effect
(1) Human Brain-derived Phosphodiesterase 4D3-encoding Gene Cloning
From a human brain cDNA library, a gene encoding phosphodiesterase 4D3 was cloned. […] The resultant PCR product was subjected to an agarose gel electrophoresis and an about 2.4 kb DNA fragment was recovered. This fragment was made blunt using a Pfu DNA polymerase ([…]) and then a phosphodiesterase 4D3 gene was cloned using Zero Blunt PCR Cloning Kit (Invitrogen).
(2) Construction of E.coli Expression Vector
The plasmid obtained in Section (1) described above was digested with a restriction enzyme EcoRI (Takara) and subjected to an agarose gel electrophoresis to recover an about 2.4 kb DNA fragment. […] This cDNA fragment was transformed into an E.coli BL21 (FUNAKOSHI) using a ligation solution, whereby obtaining an Escherichia coli BL21/pPDE4D3 capable of expressing the phosphodiesterase 4D3 gene.
(3) Expression of Recombinant Human Brain-derived Phosphodiesterase 4D3 in Escherichia coli and Purification Thereof
Using the Escherichia coli BL21/pPDE4D3 obtained in Section (2) described above, a recombinant human brain-derived phosphodiesterase 4D3 was obtained. The expression and purification of E. coli were in accordance with the protocol attached to GST Gene Fusion System (Pharmacia).
(4) Assay of Phosphodiesterase IV-inhibiting Effect
To a 96-well plate (OPTI plate, Packard), 10 μl of a buffer solution [0.5 M Tris-HCl (pH7.5), 83 mM MgCl2, 17 mM EGTA], 10 μl of the recombinant human brain-derived phosphodiesterase 4D3 (0.0034 mg/mL) obtained in […] described above, 65 μl of Ultrapure water, 5 μl of an inhibitor sample and 10 μl of [^3H]cAMP were added and reacted for 30 minutes at 30° C. After completing the reaction, 50 μl of SPA beads solution [18 mg/mL Yttrium silicate beads, 18 mM ZnSO4] was added, allowed to stand at room temperature for about 20 minutes, and the radioactivity was counted using a scintillation counter (Topcount, Packard). […] This assay system was employed to determine the recombinant human brain-derived phosphodiesterase-inhibiting effect (IC50) of each inventive compound.

[2] = test system: antigen-induced bronchoconstriction; test: Inhibiting effect on antigen-induced bronchoconstriction in guinea pigs (modified Konzett-Rossler method); assay type: in vivo; settings: guinea pig, 1 mg/kg intravenously 5 minutes before the antigen challenge, vs control group
Description: Example 2 Inhibiting Effect on Antigen-induced Bronchoconstriction in Guinea Pigs
(1) Preparation of Rabbit Anti-ovalbumin (OA) Serum
A white rabbit (body weight: about 3 kg; New Zealand white: […] LABES) was immunized by an intramuscular administration of 1.0 mL of an emulsion of 0.5 mL of a 10% OA (Grade III, Sigma) solution and 0.5 mL of Freund Complete Adjuvant (WAKO PURE CHEMICAL […], LTD.). This procedure was conducted once every week repetitively 4 times in total. One week after the final immunization, the whole blood was sampled. The blood sample was allowed to stand at room temperature for 1 hour or longer, and then in a refrigeration room for a day. On the following day, the serum fraction was isolated and centrifuged (3000 rpm, 10 min.), and the supernatant was stored as an antiserum at −20° C.
(2) Antigen-induced Bronchoconstriction
The bronchoconstriction was measured by a modified Konzett-Rossler method. Each male Hartley guinea pig weighing 400 to 500 g (NIPPON SLC, Shizuoka) was anesthetized with ether, treated intravenously with 1.0 mL of a 8- to 16-fold diluted anti-OA serum, and subjected to an experiment after 16 to 24 hours. Under an anesthesia with urethane (1.2 g/kg ip) (Aldrich), a tracheal cannula was inserted, and gallamine triethiodide (1 mg/kg iv) (Sigma) was administered to arrest the spontaneous respiration. The animal was ventilated artificially using an artificial respirator (Harvard model 683) at 70 respirations/minutes, with each ventilation volume of 2 to 3 mL and initial load of 10 cmH2O, and the intratracheal pressure was measured at the side arm of the tracheal cannula using a differential pressure type transducer. Mepyramine maleate (1.0 mg/kg) (Sigma) and propranolol (1.0 mg/kg) (Sigma) were administered intravenously 2 minutes after the administration of gallamine triethiodide, and after further 2 minutes the OA antigen (1.0 mg/kg) was administered intravenously to induce the bronchoconstriction.
A compound of Example was dissolved in 25% dimethylacetamide, 25% polyethylene glycol 400 and 50% physiological saline, and administered intravenously 5 minutes before the antigen challenge at a dose of 1 mg/kg. Percent inhibition was calculated based on the comparison with a control group (intravenous administration of a mixture of 25% dimethylacetamide, 25% polyethylene glycol 400 and 50% physiological saline).

SMILES	IC50 [1]	% inhibition in bronchoconstriction [2]
COc1cc2c(c3c1OC(C)(C)C3)C(c1cccc(N(S(C)(=O)=O)S(C)(=O)=O)c1)=NC(C)(C)C2 [Example 45, N-(Methylsulfonyl)-N-[3-(3.4,8,9-tetrahydro-6-methoxy-3,3,8,8-tetramethylfuro[2,3-h]isoquinolin-1-yl)phenyl]methanesulfonamide]	9.36 nM	44%
COc1cc2c(c3c1OC(C)(C)C3)C(c1cccc(-c3cccc(NC(C)=O)c3)c1)=NC(C)(C)C2 [Example 263, N-[3′-(3,4,8,9-Tetrahydro-6-methoxy-3,3,8,8-tetramethylfuro[2,3-h]isoquinolin-1-yl)[1,1′-biphenyl]-3-yl]acetamide]	13.7 nM	59%
CNC(=O)c1cccc(C2=NC(C)(C)Cc3cc(OC)c4c(c32)CC(C)(C)O4)c1 [Example 179, N-Methyl-3-(3,4,8,9-tetrahydro-6-methoxy-3,3,8,8-tetramethylfuro[2,3-h]isoquinolin-1-yl)benzamide]	124 nM	46%
COc1cc2c(c3c1OC(C)(C)C3)C(c1cccc(NC(=O)C[S+](C)[O-])c1)=NC(C)(C)C2 (centres unmarked) [Example 39, 2-(Methylsulfinyl)-N-[3-(3,4,8,9-tetrahydro-6-methoxy-3,3,8,8-tetramethylfuro[2,3-h]isoquinolin-1-yl)phenyl]acetamide]	19.4 nM	45%
COc1cc2c(c3c1OC(C)(C)C3)C(c1cccc(C(=O)NCCc3ccncc3)c1)=NC(C)(C)C2 [Example 149, N-[2-(4-Pyridinyl)ethyl]-3-(3,4.8,9-tetrahydro-6-methoxy-3,3,8,8-tetramethylfuro[2,3-h]isoquinolin-1-yl)benzamide]	40.1 nM	58%
CCNC(=O)c1cccc(C2=NC(C)(C)Cc3cc(OC)c4c(c32)CC(C)(C)O4)c1 [Example 180, N-Ethyl-3-(3,4,8,9-tetrahydro-6-methoxy-3,3,8,8-tetramethylfuro[2,3-h]isoquinolin-1-yl)benzamide]	123 nM	57%
COc1cc2c(c3c1OC(C)(C)C3)C(c1cccc(C(=O)NCC(N)=O)c1)=NC(C)(C)C2 [Example 157, N-(2-Amino-2-oxoethyl)-3-(3,4,8,9-tetrahydro-6-methoxy-3,3,8,8-tetramethylfuro[2,3-h]isoquinolin-1-yl)benzamide]	82 nM	57%
